Measurements: paper PMC6166404 (Journal of medicinal chemistry, 2018)
Read-outs that look alike come from different tables or passages of the source.

How the values were obtained:
HepG2 cells = conditions: 24 h; for cytotoxicity, lactate dehydrogenase release: 25 μM, range stated for the three compounds together; for LD50 / cytotoxicity (in words): LDH release; for cytotoxicity (in words): up to 25 μM
Mtb H37Rv (ATCC 27294) [1] = assay type: cell-based; conditions: for antibacterial activity over two weeks: two weeks in culture; for effect of guanine on MIC: presence of guanine (200 μM)
H37Rv = assay type: cell-based; conditions: addition of ATc
Mtb H37Rv (ATCC 27294) [2] = conditions: 7H9/ADC/Tween medium, no guanine, 1 week; cited from earlier work
human GMPR2 = target: T1, human GMPR2 (Homo sapiens, UniProt Q9P2T1); test: biochemical
T1 sequence (Q9P2T1 1-348): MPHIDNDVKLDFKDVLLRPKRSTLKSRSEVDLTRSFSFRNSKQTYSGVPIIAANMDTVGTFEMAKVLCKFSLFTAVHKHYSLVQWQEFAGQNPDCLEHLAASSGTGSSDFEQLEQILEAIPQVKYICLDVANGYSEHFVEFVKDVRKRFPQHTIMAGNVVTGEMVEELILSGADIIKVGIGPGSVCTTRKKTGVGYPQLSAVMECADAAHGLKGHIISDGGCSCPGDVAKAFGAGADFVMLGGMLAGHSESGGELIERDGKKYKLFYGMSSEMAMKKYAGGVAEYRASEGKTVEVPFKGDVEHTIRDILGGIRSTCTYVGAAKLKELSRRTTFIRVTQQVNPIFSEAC

MCF7 cells = conditions: 25 μM, LDH release
[3] = 2 h
HEK293T cells = conditions: 25 μM, LDH release
Hela cells = conditions: 25 μM, LDH release
human IMPDH2 = human IMPDH2 (Homo sapiens, UniProt P12268); test: biochemical

C[C@H](Oc1cccc(F)c1F)C(=O)Nc1ccc2oc(-c3ccc(C#N)cc3)nc2c1 [Compound 8p, (S)-N-(2-(4-Cyanophenyl)benzo[d]oxazol-5-yl)-2-(2,3-difluorophenoxy)propanamide]
cytotoxicity, lactate dehydrogenase release (HepG2 cells): 9–13% | LD50 (HepG2 cells): > 25 µM

C[C@H](Oc1cccc(F)c1F)C(=O)Nc1ccc2oc(-c3ccncc3)nc2c1 [Compound 8l, (S)-2-(2,3-Difluorophenoxy)-N-(2-(pyridin-4-yl)benzo[d]oxazol-5-yl)propanamide]
cytotoxicity (in words) (HepG2 cells): Only compounds 8p, 8u and 17b displayed measurable cytotoxicity | antibacterial activity over two weeks (Mtb H37Rv (ATCC 27294) [1]; Mtb H37Rv): retained antibacterial activity

COc1ccc(OC(C)C(=O)Nc2ccc3oc(-c4ccncc4)nc3c2)cc1 (stereo not shown) [Compound 1, reference compound]
effect of ATc on antibacterial activity against the wild-type strain (H37Rv): not affected | 7H9/ADC/Tween MIC −Gua (Mtb H37Rv (ATCC 27294) [2]): 10 ± 2 (3) μM

COc1ccc(-c2nc3cc(NC[C@H](C)Oc4cccc(Cl)c4Cl)ccc3o2)cc1 [Compound 11, (S)-N-(2-(2,3-Dichlorophenoxy)propyl)-2-(4-methoxyphenyl)benzo[d]oxazol-5-amine]
Ki (human GMPR2): > 5 µM

COc1ccc(-c2nc3cc(NC(=O)[C@H](C)Oc4cccc(Cl)c4Cl)ccc3o2)cn1 [Compound 8c, (S)-2-(2,3-dichlorophenoxy)-N-(2-(6-methoxypyridin-3-yl)benzo[d]oxazol-5-yl)propanamide]
effect of guanine on MIC (Mtb H37Rv (ATCC 27294) [1]): increased in the presence of guanine in 7H9/ADC/Tween medium but not in GAST/Fe

C[C@H](Oc1cccc(Cl)c1Cl)C(=O)Nc1ccc2oc(-c3ccc(OCC(=O)O)cc3)nc2c1 [Compound 19a, (S)-2-(4-(5-(2-(2,3-Dichlorophenoxy)propanamido)benzo[d]oxazol-2-yl)phenoxy)acetic acid]
cytotoxicity (in words) (HepG2 cells): no cytotoxicity was observed

(S)-2-(2,3-Dichlorophenoxy)-N-(2-(2-methoxypyridin-4-yl)benzo[d]oxazol-5-yl)propanamide [Compound 8b]
7H9/ADC/Tween MIC +Gua (Mtb H37Rv (ATCC 27294) [1]; Mtb H37Rv, 7H9/ADC/Tween medium, 200 μM guanine, 1 week): 14 ± 5 (2) μM | 7H9/ADC/Tween MIC −Gua (Mtb H37Rv (ATCC 27294) [1]; Mtb H37Rv, 7H9/ADC/Tween medium, no guanine, 1 week): 3.5 ± 1.2 (2) μM | GAST/Fe MIC +Gua (Mtb H37Rv (ATCC 27294) [1]; Mtb H37Rv, GAST/Fe medium, 200 μM guanine, 1 week): 6.3 ± 0.0 (2) μM | GAST/Fe MIC −Gua (Mtb H37Rv (ATCC 27294) [1]; Mtb H37Rv, GAST/Fe medium, no guanine, 1 week): 6.3 ± 0.0 (2) μM

C[C@H](Nc1cccc(Cl)c1Cl)C(=O)Nc1ccc2oc(-c3ccc(C#N)cc3)nc2c1 [Compound 17a, (S)-N-(2-(4-Cyanophenyl)benzo[d]oxazol-5-yl)-2-((2,3-dichlorophenyl)amino)propanamide]
antibacterial activity over two weeks (Mtb H37Rv (ATCC 27294) [1]; Mtb H37Rv): retained antibacterial activity

C[C@H](Oc1cccc(Cl)c1Cl)C(=O)Nc1ccc2oc(-c3ccc(C(=O)O)cc3)nc2c1 [Compound 22, (S)-4-(5-(2-(2,3-Dichlorophenoxy)propanamido)benzo[d]oxazol-2-yl)benzoic acid]
effect of ATc on antibacterial activity against the wild-type strain (H37Rv): not affected | antibacterial activity over two weeks (Mtb H37Rv (ATCC 27294) [1]; Mtb H37Rv): retained activity

CCOC(=O)COc1ccc(-c2nc3cc(NC(=O)[C@H](C)Oc4cccc(Cl)c4Cl)ccc3o2)cc1 [Compound 18a, Ethyl (S)-2-(4-(5-(2-(2,3-dichlorophenoxy)propanamido)benzo[d]oxazol-2-yl)phenoxy)acetate]
effect of ATc on antibacterial activity against the wild-type strain (H37Rv): not affected | cytotoxicity (in words) (HepG2 cells): Only compounds 8p, 8u and 17b displayed measurable cytotoxicity | antibacterial activity over two weeks (Mtb H37Rv (ATCC 27294) [1]; Mtb H37Rv): retained antibacterial activity

C[C@H](Oc1cccc(F)c1F)C(=O)Nc1ccc2oc(-c3ccc(O)cc3)nc2c1 [Compound 8n, (S)-2-(2,3-Difluorophenoxy)-N-(2-(4-hydroxyphenyl)benzo[d]oxazol-5-yl)propanamide]
effect of guanine on MIC (Mtb H37Rv (ATCC 27294) [1]): increased substantially in the presence of guanine in both media

COc1ccc(-c2nc3cc(NC(=O)[C@H](C)Oc4ccccc4C#N)ccc3o2)cc1 [Compound 8u, (S)-2-(2-Cyanophenoxy)-N-(2-(4-methoxyphenyl)benzo[d]oxazol-5-yl)propanamide]
cytotoxicity, lactate dehydrogenase release (HepG2 cells): 9–13% | LD50 (HepG2 cells): > 25 µM | antibacterial activity over two weeks (Mtb H37Rv (ATCC 27294) [1]; Mtb H37Rv): retained antibacterial activity

C[C@H](Nc1cccc(F)c1F)C(=O)Nc1ccc2oc(-c3ccc(C#N)cc3)nc2c1 [Compound 17b, (S)-N-(2-(4-Cyanophenyl)benzo[d]oxazol-5-yl)-2-((2,3-difluorophenyl)amino)propanamide]
cytotoxicity (MCF7 cells): less than 10% | effect of ATc on antibacterial activity against the wild-type strain (H37Rv): not affected | cytotoxicity, lactate dehydrogenase release (HepG2 cells): 9–13% | LD50 (HepG2 cells): > 25 µM | stability in mouse plasma [3]: No decomposition | cytotoxicity (HEK293T cells): less than 10% | antibacterial activity over two weeks (Mtb H37Rv (ATCC 27294) [1]; Mtb H37Rv): retained antibacterial activity | effect of guanine on MIC (Mtb H37Rv (ATCC 27294) [1]): does not change | cytotoxicity (Hela cells): less than 10%

C[C@H](Oc1cccc(Cl)c1Cl)C(=O)Nc1ccc2oc(-c3ccc(C(=O)NO)cc3)nc2c1 [Compound 21, (S)-4-(5-(2-(2,3-Dichlorophenoxy)propanamido)benzo[d]oxazol-2-yl)-N-hydroxybenzamide]
antibacterial activity over two weeks (Mtb H37Rv (ATCC 27294) [1]; Mtb H37Rv): retained activity

C[C@H](Oc1cccc(Cl)c1Cl)C(=O)Nc1ccc2oc(-c3ccc(-c4nnn[nH]4)cc3)nc2c1 [Compound 27, (S)-N-(2-(4-(1H-Tetrazol-5-yl)phenyl)benzo[d]oxazol-5-yl)-2-(2,3-dichlorophenoxy)propanamide]
Ki (human GMPR2): > 5 µM | Ki (human IMPDH2): > 5 µM

C#CCOC(=O)COc1ccc(-c2nc3cc(NC(=O)[C@H](C)Oc4cccc(Cl)c4Cl)ccc3o2)cc1 [Compound 20, Prop-2-yn-1-yl (S)-2-(4-(5-(2-(2,3-dichlorophenoxy)propanamido)benzo[d]oxa-zol-2-yl)phenoxy)acetate]
cytotoxicity (in words) (HepG2 cells): Only compounds 8p, 8u and 17b displayed measurable cytotoxicity | antibacterial activity over two weeks (Mtb H37Rv (ATCC 27294) [1]; Mtb H37Rv): retained antibacterial activity
